Measurements taken from patent US11834453B2, “Substituted pyrimido[5,4-d]pyrimidines as HER2 inhibitors” (Array BioPharma Inc., priority 2020, dated 2023).

Columns and labels:
EGFR wild type (EGFR WT) = EGFR wild type (EGFR WT) (Homo sapiens (Human), UniProt P00533); test: Cellular phosphorylation assay, EGF-stimulated EGFR phosphorylation (Y1068) in engineered NIH 3T3 cells, Odyssey imaging, Assay 5 (footnote 1); format: cell-based; details: values marked with footnote 1
Method: NIH 3T3 cells were engineered to express ErbB2 with Exon 20 YVMA insertion (HER2-YVMA (SEQ ID NO: 2); Assay 4) or EGFR wild type (EGFR WT; Assay 5, footnote 1) with constructs obtained from GenScript and grown in DMEM supplemented with 10% fetal bovine serum and 15 μg/ml blasticidin. Cells were plated in 96-well plates at 40,000 or 45,000 cells/well for HER2-YVMA (SEQ ID NO: 2) and EGFR WT assays, respectively, and allowed to attach overnight at 37° C./5% CO2. Serially diluted compounds were added to the plates for 1 hour at 37° C./5% CO2. EGFR WT cells were stimulated with 100 ng/ml rEGF for an additional 10 minutes at 37° C./5% CO2. After compound incubation, medium was removed from the cells, which were then fixed in 3.7% formaldehyde in PBS at room temperature for 20 minutes. Following a wash with PBS, cells were permeabilized with 100% methanol at room temperature for 10 minutes. Cells were then washed with PBS/0.05% Tween-20 and blocked with Odyssey blocking buffer (LI-COR Biosciences) for at least 1 hour at room temperature. Antibodies to phosphorylated ErbB2 (Y1196, Cell Signaling #6942) or phosphorylated EGFR (Y1068, Cell Signaling #3777) and GAPDH (Millipore #MAB374) were added to the cells in blocking buffer containing 0.05% azide and incubated overnight at 4° C. After washing with PBS/0.05° i° Tween-20, the cells were incubated with fluorescently labeled secondary anti-rabbit antibody (LiCOR, IRDye 800CW #926-32211) and anti-mouse antibody (Molecular Probes, Alexa Fluor 680 #A21058) for 1 hour at room temperature in the dark. Cells were then washed and analyzed for fluorescence at both wavelengths using the Odyssey Infrared Imaging System (LI-COR Biosciences). Phosphorylated ErbB2 and EGFR signal was normalized to GAPDH signal to generate curves and calculate IC50 values.

MDR1 (P-gp) [1] = target: T1, MDR1 (P-gp) (Homo sapiens (Human), UniProt P08183); test: MDR1 transfected MDCKII canine Mdr1 knockout permeability/efflux, Assay 7; details: dog, MDCK-MDR1
T1 sequence (P08183 whole entry): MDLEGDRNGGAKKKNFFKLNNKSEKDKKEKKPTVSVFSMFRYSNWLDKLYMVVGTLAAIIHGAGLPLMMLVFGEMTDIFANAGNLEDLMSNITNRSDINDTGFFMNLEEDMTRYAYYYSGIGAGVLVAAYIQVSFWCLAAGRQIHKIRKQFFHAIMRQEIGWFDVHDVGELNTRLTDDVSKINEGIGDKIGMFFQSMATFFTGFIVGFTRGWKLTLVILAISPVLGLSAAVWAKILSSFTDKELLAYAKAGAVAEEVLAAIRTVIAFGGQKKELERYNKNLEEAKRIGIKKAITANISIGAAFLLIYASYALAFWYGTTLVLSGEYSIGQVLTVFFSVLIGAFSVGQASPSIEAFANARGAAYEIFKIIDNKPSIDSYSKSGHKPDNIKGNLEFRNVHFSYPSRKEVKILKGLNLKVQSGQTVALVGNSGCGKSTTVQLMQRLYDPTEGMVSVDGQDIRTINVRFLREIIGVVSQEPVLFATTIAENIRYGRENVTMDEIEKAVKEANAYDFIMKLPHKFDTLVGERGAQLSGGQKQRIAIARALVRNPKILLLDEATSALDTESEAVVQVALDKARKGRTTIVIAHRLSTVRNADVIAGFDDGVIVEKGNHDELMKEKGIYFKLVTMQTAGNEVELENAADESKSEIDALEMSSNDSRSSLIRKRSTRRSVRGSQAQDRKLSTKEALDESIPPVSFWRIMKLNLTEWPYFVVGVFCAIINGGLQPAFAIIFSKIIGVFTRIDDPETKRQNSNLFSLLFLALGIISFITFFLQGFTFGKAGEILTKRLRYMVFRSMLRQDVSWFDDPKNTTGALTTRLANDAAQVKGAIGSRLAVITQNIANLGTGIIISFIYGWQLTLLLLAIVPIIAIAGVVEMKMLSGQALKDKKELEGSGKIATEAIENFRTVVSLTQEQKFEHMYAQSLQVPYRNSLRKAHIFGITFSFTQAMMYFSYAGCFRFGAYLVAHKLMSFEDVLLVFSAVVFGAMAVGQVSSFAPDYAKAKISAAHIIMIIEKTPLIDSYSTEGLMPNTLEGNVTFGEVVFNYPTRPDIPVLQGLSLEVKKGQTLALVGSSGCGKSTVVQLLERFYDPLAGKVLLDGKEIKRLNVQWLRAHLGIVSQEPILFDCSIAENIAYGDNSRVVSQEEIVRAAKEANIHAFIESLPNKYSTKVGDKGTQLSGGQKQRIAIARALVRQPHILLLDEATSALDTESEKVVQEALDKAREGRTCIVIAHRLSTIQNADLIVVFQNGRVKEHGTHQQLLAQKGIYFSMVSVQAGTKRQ

EGFR = EGFR (Homo sapiens (Human), UniProt P00533); test: ErbB enzyme assay (CisBio HTRF KinEASE-TK), Assay 3; format: biochemical
Sequence of EGFR (P00533 25-1210): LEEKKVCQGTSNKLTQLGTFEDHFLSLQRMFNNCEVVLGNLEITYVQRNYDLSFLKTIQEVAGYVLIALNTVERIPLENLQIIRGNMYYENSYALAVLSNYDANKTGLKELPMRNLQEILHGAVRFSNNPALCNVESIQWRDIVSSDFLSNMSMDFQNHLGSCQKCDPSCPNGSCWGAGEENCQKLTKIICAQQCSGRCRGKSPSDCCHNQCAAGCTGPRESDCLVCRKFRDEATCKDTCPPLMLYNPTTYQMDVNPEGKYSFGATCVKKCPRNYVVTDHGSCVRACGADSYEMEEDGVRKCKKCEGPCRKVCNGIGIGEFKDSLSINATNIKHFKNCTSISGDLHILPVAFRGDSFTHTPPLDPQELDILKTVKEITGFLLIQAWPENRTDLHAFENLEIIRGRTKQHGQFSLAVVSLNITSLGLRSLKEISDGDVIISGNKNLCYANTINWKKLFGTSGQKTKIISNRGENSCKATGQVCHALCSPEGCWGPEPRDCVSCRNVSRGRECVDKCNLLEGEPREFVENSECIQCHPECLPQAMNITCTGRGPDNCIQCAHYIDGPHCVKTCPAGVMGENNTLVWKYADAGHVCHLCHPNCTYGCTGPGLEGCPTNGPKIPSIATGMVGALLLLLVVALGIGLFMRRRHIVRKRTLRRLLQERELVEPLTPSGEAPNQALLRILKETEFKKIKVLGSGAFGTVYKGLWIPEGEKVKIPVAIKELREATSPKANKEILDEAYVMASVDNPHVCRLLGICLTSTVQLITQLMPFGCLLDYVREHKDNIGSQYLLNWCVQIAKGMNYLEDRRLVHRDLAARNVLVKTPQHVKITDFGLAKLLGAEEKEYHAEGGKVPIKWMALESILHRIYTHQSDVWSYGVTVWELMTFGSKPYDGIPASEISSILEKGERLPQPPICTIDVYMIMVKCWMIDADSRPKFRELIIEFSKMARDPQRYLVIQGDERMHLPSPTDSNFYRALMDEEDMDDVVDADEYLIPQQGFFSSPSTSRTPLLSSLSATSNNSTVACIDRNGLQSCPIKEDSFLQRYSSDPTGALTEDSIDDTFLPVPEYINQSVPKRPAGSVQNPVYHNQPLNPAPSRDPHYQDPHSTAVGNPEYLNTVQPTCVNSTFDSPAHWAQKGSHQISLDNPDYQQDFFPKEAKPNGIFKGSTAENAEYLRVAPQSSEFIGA
In short: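 Inhibition is measured as reduced peptide phosphorylation by HTRF KinEASE-TK at 1 mM ATP and 250 nM substrate, 30 min at 22 °C. Values are IC50s from a 4-parameter logistic fit.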

MDR1 (P-gp) [2] = target: T1, MDR1 (P-gp); test: MDR1 transfected LLC-PK1 permeability/efflux, Assay 6; details: pig, LLC-PK1, Assay 6 Pe Ratio, efflux ratio Papp(B-A)/Papp(A-B), MDR1 transfected LLC-PK1
Method: Both MDR1 transfected LLC-PK1 (Assay 6) and MDR1 transfected MDCKII canine Mdr1 knockout cells (Assay 7) were cultured and plated according to manufacturer's recommendations with the exception that the passage media for the MDR1 transfected LLC-PK1 cell line contained only 2% fetal bovine serum so as to extend passage time out to seven days.
Both positive and negative controls were used to assess functionality of P-gp or BCRP efflux in the assays. Stock solutions for assay controls and the test article were prepared in DMSO for final test concentration of 1 μM. Final organic concentration in the assay was 1%. All dosing solutions contained 10 μM lucifer yellow to monitor MDCKII cell monolayer integrity.
For the apical to basolateral determination (A to B), 75 μL of the test article in transport buffer were added to the apical side of the individual transwells and 250 μL of basolateral media, without compound or lucifer yellow, were added to each well. For the basolateral to apical determination (B to A), 250 μL of test article in transport buffer were added to each well and 75 μL transport buffer, without compound or lucifer yellow, were added to each transwell. All tests were performed in triplicate, and each compound was tested for both apical to basolateral and basolateral to apical transport. The plates were incubated for 2 hours on a Lab-Line Instruments Titer Orbital Shaker (VWR, West Chester, PA) at 50 rpm and 37° C. with 5% CO2. All culture plates were removed from the incubator, 50 μL of media were removed from the apical and basolateral portion of each well, and added to 150 μL of 1 μM labetalol in 2:1 acetonitrile (ACN): H2O, v/v.
The plates were read using a Molecular Devices (Sunnyvale, CA) Gemini Fluorometer to evaluate the lucifer yellow concentrations at excitation/emission wavelengths of 425/535 nm. These values were accepted when found to be below 2% for apical to basolateral and 5% basolateral to apical flux across the MDR1-transfected LLC-PK1 or BCRP-transfected MDCKII cell monolayers. The plates were sealed, and the contents of each well analyzed by LC MS/MS. The compound concentrations were determined from the ratio of the peak areas of the compound to the internal standard (labetalol) in comparison to the dosing solution.
A MDS Sciex API 4000 (Applied Biosystems, Foster City, CA) mass spectrometer was used for detection of the analytes in the ion spray positive mode. Analyte responses were measured by multiple reaction monitoring (“MRM”) of transitions unique to each compound (the protonated precursor ion and selected product ions for each test article and m/z 329 to m/z 162 for labetalol, the internal standard.
The total run time, including re-equilibration, for a single injection was 1.2 minutes. […] The total run time, including re-equilibration, for a single injection was 0.61 minutes.
An efflux ratio is calculated from the mean apical to basolateral (A-B) Papp data and basolateral to apical (B-A) Papp data: Efflux ratio=Papp(B−A)/Papp(A−B)

ErbB2 WT = ErbB2 WT (Homo sapiens (Human), UniProt P04626); test: ErbB enzyme assay (CisBio HTRF KinEASE-TK), Assay 2; format: biochemical
In short: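 ErbB2 phosphorylates 250 nM biotin-TK substrate at 1 mM ATP in 25 mM HEPES pH 7.4, 10 mM MgCl2, 0.01% Triton X-100 and 2% DMSO, for 30 min at 22 °C. Product is detected by HTRF with Sa-XL665 and TK-Ab-Cryptate. Percent of control is set by DMSO-only wells and pre-quenched wells.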

[3] = target: ErbB2 insYVMA (HER2-YVMA, SEQ ID NO: 2) (Homo sapiens, UniProt P04626, INS775YVMA/P1170A); test: biochemical; details: ErbB2 insYVMA enzyme assay; read-out: Assay 1 IC50
Sequence of ErbB2 insYVMA (HER2-YVMA, SEQ ID NO: 2) (P04626 with tags, fused parts or gaps INS775YVMA/P1170A limits assumed): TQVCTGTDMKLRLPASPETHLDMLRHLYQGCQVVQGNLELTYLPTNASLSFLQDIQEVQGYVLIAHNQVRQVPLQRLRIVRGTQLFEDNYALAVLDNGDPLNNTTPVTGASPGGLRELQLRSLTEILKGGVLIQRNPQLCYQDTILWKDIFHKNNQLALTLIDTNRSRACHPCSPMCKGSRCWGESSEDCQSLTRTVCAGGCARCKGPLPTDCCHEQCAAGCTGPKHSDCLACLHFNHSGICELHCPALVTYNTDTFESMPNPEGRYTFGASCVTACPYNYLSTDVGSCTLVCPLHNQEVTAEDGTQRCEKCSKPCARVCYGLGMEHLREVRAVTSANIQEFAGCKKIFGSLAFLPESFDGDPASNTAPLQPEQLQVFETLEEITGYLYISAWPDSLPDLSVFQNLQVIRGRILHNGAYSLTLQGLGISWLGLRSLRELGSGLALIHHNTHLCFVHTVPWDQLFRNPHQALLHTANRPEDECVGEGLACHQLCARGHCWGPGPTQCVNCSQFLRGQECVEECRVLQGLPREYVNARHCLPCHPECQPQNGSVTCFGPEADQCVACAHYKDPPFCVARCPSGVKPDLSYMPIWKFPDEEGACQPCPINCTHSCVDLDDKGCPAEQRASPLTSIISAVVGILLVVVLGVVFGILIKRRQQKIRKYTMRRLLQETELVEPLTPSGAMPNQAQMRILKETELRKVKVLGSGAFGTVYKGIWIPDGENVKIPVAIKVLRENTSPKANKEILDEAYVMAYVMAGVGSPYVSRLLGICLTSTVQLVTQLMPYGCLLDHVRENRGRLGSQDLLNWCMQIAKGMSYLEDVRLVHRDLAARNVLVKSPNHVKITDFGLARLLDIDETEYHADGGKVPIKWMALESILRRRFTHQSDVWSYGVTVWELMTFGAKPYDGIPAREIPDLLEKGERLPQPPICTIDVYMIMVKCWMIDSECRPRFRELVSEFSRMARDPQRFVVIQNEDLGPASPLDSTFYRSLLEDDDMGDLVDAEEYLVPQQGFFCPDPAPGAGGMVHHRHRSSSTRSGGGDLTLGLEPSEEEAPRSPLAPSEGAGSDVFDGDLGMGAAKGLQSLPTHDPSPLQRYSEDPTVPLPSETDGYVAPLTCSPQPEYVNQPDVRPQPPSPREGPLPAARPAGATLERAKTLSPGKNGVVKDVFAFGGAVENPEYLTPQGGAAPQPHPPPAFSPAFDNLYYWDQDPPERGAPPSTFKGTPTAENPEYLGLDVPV

[4] = target: ErbB2 with Exon 20 YVMA insertion (HER2-YVMA) (Homo sapiens (Human), UniProt P04626, INS775YVMA); test: Cellular phosphorylation assay, constitutive ErbB2 phosphorylation (Y1196) in engineered NIH 3T3 cells, Assay 4; format: cell-based
In short: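 Engineered NIH 3T3 cells expressing HER2-YVMA treated with compounds 1 h at 37 °C, then formaldehyde-fixed and methanol-permeabilized. pErbB2 Y1196 detected by in-cell infrared immunofluorescence, normalized to GAPDH. IC50 from the normalized curves.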

Sequence of EGFR wild type (EGFR WT) (P00533 25-1210): as the sequence (P00533 25-1210) above

SMILES	IC50 (EGFR wild type (EGFR WT))	efflux ratio at 2 h, 1 μM (MDR1 (P-gp) [1])	IC50 (EGFR)	efflux ratio at 2 h, 1 μM (MDR1 (P-gp) [2])	IC50 (ErbB2 WT)	IC50 [3]	IC50 [4]
CSc1ncc2ncnc(Nc3ccc(Oc4ccc5c(c4)ncn5C)c(C)c3)c2n1 [Example 1, N-(3-methyl-4-((1-methyl-1H-benzo[d]imidazol-5-yl)oxy)phenyl)-6-(methylthio)pyrimido[5,4-d]pyrimidin-4-amine]	5 µM	1.4	≥ 10 µM	1.2	0.0411 µM	0.0193 µM	0.0292 µM
Cc1cc(Nc2ncnc3cnc(S(C)(=O)=O)nc23)ccc1Oc1ccc2c(c1)ncn2C [Example 2, N-(3-methyl-4-((1-methyl-1H-benzo[d]imidazol-5-yl)oxy)phenyl)-6-(methylsulfonyl)pyrimido[5,4-d]pyrimidin-4-amine]	5 µM		4.64 µM		0.0149 µM	0.0079 µM	4.75 µM
Cc1cc(Nc2ncnc3cnc(N(C)C)nc23)ccc1Oc1ccc2c(c1)ncn2C [Example 3, N2,N2-dimethyl-N8-(3-methyl-4-((1-methyl-1H-benzo[d]imidazol-5-yl)oxy)phenyl)pyrimido[5,4-d]pyrimidine-2,8-diamine 2,2,2-trifluoroacetate]	5 µM	1	8.25 µM	1	0.0524 µM	0.0125 µM	0.0429 µM
CNc1ncc2ncnc(Nc3ccc(Oc4ccc5c(c4)ncn5C)c(C)c3)c2n1 [Example 4, N2-methyl-N8-(3-methyl-4-((1-methyl-1H-benzo[d]imidazol-5-yl)oxy)phenyl)pyrimido[5,4-d]pyrimidine-2,8-diamine]	5 µM	1.4	4.9 µM	0.9	0.03 µM	0.0089 µM	0.0072 µM
Cc1cc(Nc2ncnc3cnc(S(C)(=O)=O)nc23)ccc1Oc1ccc2c(C)onc2c1 [Example 5, N-(3-methyl-4-((3-methylbenzo[c]isoxazol-6-yl)oxy)phenyl)-6-(methylsulfonyl)pyrimido[5,4-d]pyrimidin-4-amine]	5 µM		4.15 µM		0.0109 µM	0.0098 µM	4.45 µM
COc1ncc2ncnc(Nc3ccc(Oc4ccc5c(C)onc5c4)c(C)c3)c2n1 [Example 6, 6-methoxy-N-(3-methyl-4-((3-methylbenzo[c]isoxazol-6-yl)oxy)phenyl)pyrimido[5,4-d]pyrimidin-4-amine]	5 µM		≥ 10 µM		0.232 µM	0.0246 µM	1.45 µM
COc1ncc2ncnc(Nc3ccc(Oc4ccc5csnc5c4)c(C)c3)c2n1 [Example 7, N-(4-(benzo[c]isothiazol-6-yloxy)-3-methylphenyl)-6-methoxypyrimido[5,4-d]pyrimidin-4-amine 2,2,2-trifluoroacetate]	5 µM	1.3	2.01 µM	1	0.0568 µM	0.0185 µM	0.145 µM
COc1ncc2ncnc(Nc3ccc(Oc4ccc5c(c4)ncn5C)c(C)c3)c2n1 [Example 8, 6-methoxy-N-(3-methyl-4-((1-methyl-1H-benzo[d]imidazol-5-yl)oxy)phenyl)pyrimido[5,4-d]pyrimidin-4-amine 2,2,2-trifluoroacetate]	5 µM	1	≥ 10 µM	0.9	0.0697 µM	0.0227 µM	0.159 µM
